Measurements: patent US11819537B2, “Preventive or therapeutic method for inflammatory skin disease” (Osaka University, priority 2016, dated 2023)

Legend:
[1] = tested on: TLR7/8 signals (THP-1 cells); experiment: IL-6 secretion from macrophage cells stimulated with R848 (Example 3); assay type: cell-based, human; conditions: for TLR7/8 signal suppression effects, MHP1 compared with hMHP4: 30.5 μM each; for TLR7/8 signal suppression effects, MHP1 compared with hMHP4 / increase in the amount of IL-6 secretion by R848: FIG. 6; for TLR7/8 signals / increase in the amount of IL-6 secretion by R848: R848 10 μg/ml; for TLR7/8 signals: conclusion from FIG. 6; for increase in the amount of IL-6 secretion by R848: peptide 30.5 μM, 24 hours, ELISA
Description: The influence of the RANKL peptide on the amount of proinflammatory cytokines (IL-6) secreted from macrophage cells by the stimulation of a TLR7/8 ligand (R848) was examined. The specific examination procedures were as follows.
THP-1 cells (human-derived macrophage cell line) were cultured in a DMEM medium (+4% FBS) containing MHP1 or hMHP4 (final concentration: 30.5 μM) and R848 (final concentration: 10 μg/ml) or a DMEM medium (+4% FBS) containing R848 (final concentration: 10 μg/ml) alone for 24 hours by a standard method. After culturing, the concentration of IL-6 in the medium was measured by the ELISA method.

[2] = tested on: psoriatic symptoms caused by the administration of imiquimod (IMQ); experiment: Imiquimod-induced psoriatic symptoms in mice, MHP4 hydrophilic petrolatum ointment (Example 8); assay type: in vivo; conditions: MHP4 hydrophilic petrolatum ointment 375 ng/15 mg per mouse applied every day; 5% imiquimod; BALB/c male mice; FIGS. 11 to 14
Description: Specifically, the following procedure was performed according to the dosing schedule shown in FIG. 1 except that the first application of an ointment was performed 6 hours after the first imiquimod application. In Example 1, the RANKL peptide aqueous solution was administered, while a RANKL peptide ointment was administered in this example. As test animals, BALB/c 9-week-old male mice whose back hair was partially removed were prepared. 5% imiquimod (IMQ) was applied to the hair-removed portion in the back and ear of each mouse (62.5 mg per mouse) (day 0 (0 d)). 6 hours later, (1) an MHP4 hydrophilic petrolatum ointment (375 ng (MHP4)/15 mg (hydrophilic petrolatum) per mouse, n=2), hydrophilic petrolatum (control (untreated), n=2), or MCT/BBP (Marduox (tradename) ointment) (15 mg per mouse, n=2) was individually applied to the back and ear. Thereafter, imiquimod and item (1) above were applied every day (from day 1 (1 d)). […] The degree of redness in the back, the degree of white scaling in the back, and the degree of skin thickening in the back were quantified according to the description in the document (van der Fits, L. et al. Imiquimod-induced psoriasis-like skin inflammation in mice is mediated via the IL-23/IL-17 axis. J. Immunol. 182, 5836-45 (2009) (evaluation criteria: none (0), mild (1), moderate (2), severe (3), and very severe (4)). FIGS. 12 to 14 show the results.

[3] = tested on: TLR7/8 signals (MG6 cells); experiment: Proinflammatory cytokine secretion from microglial cells stimulated with R848 (Example 2); assay type: cell-based, mouse; conditions: R848 1 μg/ml; for increase in the amount of IL-6 secretion by R848: MHP4 7.6, 15.3 or 30.5 μM, FIG. 5a, 5c; for TLR7/8 signals: conclusion from FIG. 5
Description: The influence of the RANKL peptide on the amount of proinflammatory cytokines (IL-6 and TFNα) secreted from microglial cells by the stimulation of imidazoquinoline resiquimod (R848 produced by Invitrogen), which is a TLR7/8 ligand, was examined. The specific examination procedures were as follows.
MG6 cells (mouse-derived microglial cell line) were cultured in a DMEM medium (+4% FBS) containing MHP1 or MHP4 (final concentration: 7.6, 15.3, or 30.5 μM) and R848 (final concentration: 1 μg/ml) or a DMEM medium (+4% FBS) containing R848 (final concentration: 1 μg/ml) alone for 24 hours by a standard method. After culturing, the concentrations of IL-6 and TNFα in the medium were measured by the ELISA method. In the Examples of the present application, the ELISA method was performed using a kit (Quantikine ELISA Mouse TNF-a or Quantikine ELISA Mouse IL-6, produced by R&D Systems).

MG6 cells = experiment: Stability of RANKL peptide: cytokine secretion inhibition in LPS-stimulated MG6 cells after storage (Example 7); assay type: cell-based, mouse
Description: The stability of the RANKL peptide was examined. The specific examination procedures were as follows.
MHP1 was dissolved in water to a concentration of 2 mg/ml, and stored at 4° C. for 208 days. Thereafter, MG6 cells (mouse-derived microglial cell line) were cultured in a DMEM medium (+4% FBS) containing MHP1 (final concentration: 100 μg/ml) and LPS (final concentration: 2 ng/ml) for 24 hours by a standard method. After culturing, the concentrations of IL-6 and TNFα in the medium were measured by the ELISA method.

[4] = tested on: psoriatic symptoms caused by the administration of imiquimod (IMQ); experiment: Imiquimod-induced psoriatic symptoms in mice, MHP1 aqueous solution (Example 1); assay type: in vivo; conditions: MHP1 aqueous solution 200 μg/100 μL per mouse applied to back and ear every day; 5% imiquimod; BALB/c female mice; FIGS. 2 to 4
Description: As test animals, BALB/c 6-week-old female mice whose back hair was partially removed were prepared. 5% imiquimod (IMQ) was applied to the hair-removed portion in the back and ear of each mouse (62.5 mg per mouse) (day 0 (0 d)). One day later, (1) an MHP1 aqueous solution (200 μg/100 μL per mouse, n=2) or dH2O (control, n=2) was individually applied to the back and ear, followed by the application of (2) 5% imiquimod (IMQ) (62.5 mg per mouse (day 1 (1 d)). Thereafter, items (1) and (2) above were applied every day for 5 days (day 2 to 6 (2 d to 6 d)).
The degree of white scaling in the back was quantified in accordance with the description of the document (van der Fits, L. et al. Imiquimod-induced psoriasis-like skin inflammation in mice is mediated via the IL-23/IL-17 axis. J. Immunol. 182, 5836-45 (2009)) (evaluation criteria: none (0), mild (1), moderate (2), severe (3), and very severe (4)).
Additionally, the ear thickness was measured.

[5] = tested on: osteoclast precursor cells; experiment: Osteoclast differentiation, Osteoclast Culture Kit V-2, TRAP staining (Example 6); assay type: cell-based; conditions: 7 days
Description: Osteoclast Culture Kit V-2 (OSC33, produced by Cosmo Bio Co., Ltd.) was used. According to the manual of the kit, the culturing of osteoclast precursor cells was started in the presence of M-CSF (final concentration: 50 ng/ml) in the A and B groups, and in the presence of M-CSF (final concentration: 50 ng/ml) and MHP1 (final concentration: 30, 50, or 100 μg/ml) in the C and D groups. Thereafter, 24 hours to 7 days after the start of culturing, the A group was cultured in the presence of M-CSF (final concentration: 50 ng/ml), the B group was cultured in the presence of M-CSF (final concentration: 50 ng/ml) and RANKL protein (final concentration: 50 ng/ml), the C group was cultured in the presence of M-CSF (final concentration: 50 ng/ml) and MHP1 (final concentration: 30, 50, or 100 μg/ml), and the D group was cultured in the presence of M-CSF (final concentration: 50 ng/ml), RANKL protein (final concentration: 50 ng/ml), and MHP1 (final concentration: 30, 50, or 100 μg/ml). After culturing, the cells were subjected to TRAP staining and nuclear staining according to a standard method.

NFATc1 and ACP5 mRNA = experiment: Osteoclast-related mRNA expression in RAW264.7 cells, real-time RT-PCR (Example 5); assay type: cell-based; conditions: MHP1 100 μg/ml, collected after 3 days, FIG. 8A, 8B
Description: (§1) It has recently been reported that the administration of RANKL protein to mice induces the activation of osteoclasts. Accordingly, the influence of the RANKL peptide on osteoclasts was examined. The specific examination procedures were as follows.
(§2) MHP1 (final concentration: 100 μg/ml) or RANKL protein (final concentration: 10 ng/ml) was added to a medium (DMEM medium (+4% FBS)) in which RAW264.7 cells were cultured, and the cells were collected after 10 minutes and 3 days.
(§3) For the samples collected after 10 minutes, nuclear proteins of the cells were extracted using the Nuclear Extract Kit (Active Motif), and the degree of NFκB (p65) activation was measured by the TransAM NFkB p65 Kit (Active Motif). On the other hand, for the samples collected after 3 days, the mRNA expression levels of NFATc1 and ACP5 were analyzed by real-time RT-PCR.

NFκB (p65) = NFκB (p65) activation in RAW264.7 cells, TransAM NFkB p65 Kit (Example 5); assay type: cell-based; conditions: MHP1 100 μg/ml, collected after 10 minutes, FIG. 8C
Description: as §1, §2, §3

| Sequence | TLR7/8 signal suppression effects, MHP1 compared with hMHP4 [1] | TLR7/8 signals [1] | increase in the amount of IL-6 secretion by R848 [1] | psoriasis symptoms (back photographs, degree of redness, white scaling, skin thickening) [2] | increase in the amount of IL-6 secretion by R848 ([3]; MHP1 30.5 μM, 24 hours, ELISA) | TLR7/8 signals [3] | stability (MG6 cells; 2 mg/ml in water, 4° C., 208 days) | proinflammatory cytokine (IL-6, TNFα) secretion-inhibiting effect after long-term storage (MG6 cells; MHP1 2 mg/ml in water stored at 4° C. for 208 days, then 100 μg/ml with LPS 2 ng/ml, MG6 cells, 24 hours, FIG. 10) | psoriatic symptoms (back photographs, degree of white scaling, ear thickness) [4] | differentiation of osteoclasts when MHP1 was added (without RANKL protein) ([5]; M-CSF 50 ng/ml and MHP1 30, 50 or 100 μg/ml, TRAP and nuclear staining, FIG. 9 (b)) | differentiation of osteoclasts promoted by RANKL ([5]; M-CSF 50 ng/ml, RANKL protein 50 ng/ml and MHP1 30, 50 or 100 μg/ml, TRAP staining, FIG. 9 (a)) | expression of osteoclast-related mRNA (NFATc1, ACP5) (NFATc1 and ACP5 mRNA) | NFκB (p65) activation (NFκB (p65)) | increase in the amount of TNFα secretion by R848 ([3]; MHP1 30.5 μM, 24 hours, ELISA, FIG. 5b) |
| --- | --- | --- | --- | --- | --- | --- | --- | --- | --- | --- | --- | --- | --- | --- |
| LMVYVTKTSIKIPSS (listed as Homo sapiens) [hMHP4] | similar | suppressed the TLR7/8 signals | suppressed | – | – | – | – | – | – | – | – | – | – | – |
| LMVYVVKTSIKIPSS (listed as Mus musculus) [MHP4] | – | – | – | improved psoriasis symptoms | suppressed | suppressed the TLR7/8 signals | – | – | – | – | – | – | – | – |
| LMVYVVKTSIKIPSSHNLMKGGSTKNWSGN (listed as Mus musculus) [MHP1] | similar | suppressed the TLR7/8 signals | suppressed | – | suppressed | suppressed the TLR7/8 signals | high | in the same manner as MHP1 before storage | improved psoriatic symptoms | did not occur | inhibited | did not promote | slightly activated | suppressed |
